Assay results published in US8334316B2, “Substituted organosulfur compounds and methods of using thereof” (ACEA Biosciences, Inc., priority 2004, dated 2012).

Tests used:
Type in all cases: cell-based
[1] = test system: HT1080 (human fibrosarcoma cell line); test: RT-CES system cell proliferation/cytotoxicity IC50, HT1080; conditions: HT-1080, time point of maximum inhibition
Text: The RT-CES system comprises three components, an electronic sensor analyzer, a device station and 16× or 96× microtiter plate devices. Microelectrode sensor array was fabricated on glass slides with lithographical microfabrication methods and the electrode-containing slides are assembled to plastic trays to form electrode-containing wells. Each 16× (or 96×) microtiter plate device used in RT-CES system comprises up to 16 (or 96) such electrode-containing wells. The device station receives the 16× or 96× microtiter plate devices and is capable of electronically switching any one of the wells to the sensor analyzer for impedance measurement. In operation, the devices with cells cultured in the wells are placed into a device station that is located inside an incubator. Electrical cables connect the device station to the sensor analyzer. Under the RT-CES software control, the sensor analyzer can automatically select wells to be measured and continuously conduct impedance measurements. The impedance data from the analyzer is transferred to a computer, analyzed and processed by the integrated software.
To quantify cell status based on the measured cell-electrode impedance, a parameter termed Cell Index is derived, according to
[formula] where Rb(f) and Rcell(f) are the frequency dependent electrode resistances (a component of impedance) without cells or with cell present, respectively. N is the number of the frequency points at which the impedance is measured. Thus, Cell Index is a quantitative measure of the status of the cells in an electrode-containing well. Under the same physiological conditions, more cells attached on to the electrodes leads to larger Rcell(f) value, leading to a larger value for Cell Index. Furthermore, for the same number of cells present in the well, a change in the cell status such as morphology will lead to a change in the Cell Index. For example, an increase in cell adhesion or cell spreading leads to larger cell-electrode contact area which will lead to an increase in Rcell(f) and thus a larger value for Cell Index. The Cell Index may also be calculated using a formula different from the one described here. Other methods for calculating the Cell Index based on impedance measurement can be found in PCT application number PCT/US04/37696, fined on Nov. 12, 2004, PCT application number PCT/US05/04481, filed on Feb. 9, 2005, U.S. patent application Ser. No. 10/987,732, filed on Nov. 12, 2004, and U.S. patent application Ser. No. 11/055,639, filed on Feb. 9, 2005.
HT1080 cells (human fibrosarcoma cells) were seeded into wells of 16× or 96× microtiter plate devices (electronic plates, i.e., the plates comprise microelectrode sensor arrays in the wells of the plate) with an initial seeding density of 4,000 cells per well and were pre-incubated in incubator under standard cell culture conditions for about 18.6 hrs. Dibenzyl trisulfide solution in DMSO was added into wells following the incubation period. The cell status was monitored prior to and after the compound addition using RT-CES system. The cell indexes of different wells were between 0.72 and 1.45 just before the compound addition. […] The cell index was normalized against the cell index values at a time point just after compound addition (about 20 hrs after cell seeding).
For the assay performed on the RT-CES system, the cells were seeded into the 16× or 96× microtiter plate devices (electronic plates, i.e., the plates comprise microelectrode sensor arrays in the wells of the plate) at the seeding density ranging from 5000 cells/well to 15,000 cells/well. The cells were incubated at 5% CO2 and 37° C. for overnight till the cell indices reached the growth phase where the cell index was between 0.8 and 1.2. Serially diluted compounds were then added to the cells followed by dynamic monitoring of the effect of the compounds on the cell proliferation and cytotoxicity. […]

[2] = test system: Jurkat (human T cell leukemia cell line); test: MTT assay IC50 (48 h), Jurkat
Protocol: (§1) In another assay format, a test compound is assayed for its cytotoxicity and/or cytostatic effect on certain cancer cell types, using endpoint assay methods. Cells in the NCI cancer cell panel may be used. Cells after a pre-incubation for certain length of time (for example, 8 hrs or 24 hrs) are incubated with a test compound at serially-diluted concentrations (for example, five 10-fold dilutions) for 24 hrs and/or 48 hrs, and/or other specific length of time. The dose dependent cytotoxicity and/or cytostatic effects of test compounds can then be tested and evaluated using the 3-(4,5-dimethylthiazol-2-yl)-2,5-diphenyltetrazolium bromide (MTT) assay method, as described by, for example, Boyd (In Principle of Practice of Oncology, Devita, J. T., Hellman, S. and Rosenberg S. A. (Eds), 1989, Vol, 3, PPO Update, No. 10).
(§2) The anticancer potency of DBTS and its derivatives were tested in 8 different types of human cancer cell lines using the RT-CES system and MTT assay. The 8 cancer cell lines were HT1080 (the human fibrosarcoma cell line), H460 (human non small cell lung cancer cell line), OVCAR4 (the human ovarian cancer cell line), MCF7 (human breast cancer cell line) MDA-MB231 (M231, the human breast cancer cell line) A2780 (the human […] cancer cell line) Jurkat (the human T cell leukemia cell line). The test DBTS derivatives include ACEA100107, ACEA100108, ACEA100109, ACEA100111, ACEA100115, ACEA100116, ACEA100117, ACEA100118, ACEA100119, and ACEA100120.
(§3) For the MTT assay, the cells were seeded into the regular 96× well plates at the cell seeding density ranging from 5000 cells/well to 15,000 cells/well. The cells were incubated at 5% CO2 and 37° C. for overnight. The derivatives were serially diluted and added to the cells. The treatment was terminated after 48 hours of incubation by adding MTT staining reagent. After 4 hours, the staining was stopped by the stop buffer and then the calorimetric measurement was carried out on a microtiter plate reader at dual wave length, 650 nm and 550 nm.

[3] = test system: MDA-MB231 (M231, human breast cancer cell line); test: MTT assay IC50 (48 h), MDA-MB231; conditions: MDA-MB-231, M231, 48 hours
Protocol: as §1, §2, §3

Compound `FC(F)(F)c1cccc(CSSSCc2cccc(C(F)(F)F)c2)c1` [ACEA100117, Di(m-trifluoromethylbenzyl)trisulfide] has an IC50 [1] of 27.5 µM, an IC50 [2] of 8000 nM and an IC50 [3] of 14900 nM.
Work on `Clc1ccccc1CSSSCc1ccccc1Cl` [ACEA100115, Di(o-chlorobenzyl)trisulfide] yielded an IC50 [1] of 2.2 µM, an IC50 [2] of 510 nM and an IC50 [3] of 3100 nM.
`Fc1ccc(CSSSCc2ccc(F)cc2)cc1` [ACEA100108, Di(p-fluorobenzyl)trisulfide] gave an IC50 [1] of 1.3 µM, an IC50 [2] of 350 nM and an IC50 [3] of 4400 nM.
Work on `c1ccc(CSSSCc2ccccc2)cc1` [DBTS, Dibenzyl trisulfide] yielded an IC50 [1] of 2.2 µM, an IC50 [2] of 350 nM and an IC50 [3] of 2400 nM.
`Cc1cccc(CSSSCc2cccc(C)c2)c1` [ACEA100116, di(m-methylbenzyl)trisulfide] was tested, and the IC50 [1] was 1.9 µM, the IC50 [2] was 300 nM and the IC50 [3] was 650 nM.
`Clc1ccc(CSSSCc2ccc(Cl)cc2)cc1` [ACEA100118, Di(p-chlorobenzyl)trisulfide] showed an IC50 [1] of 1.2 µM, an IC50 [2] of 500 nM and an IC50 [3] of 1200 nM.
